Experimental data published in patent US20080254497A1, “Response Predictors for Erbb Pathway-Specific Drugs” (MONOGRAM BIOSCIENCES, INC., priority 2004, published 2008).

Columns and labels:
[1] = system: human cell lines (head and neck, breast, and gastric); details: cited from earlier work
[2] = system: activation of EGFR, erbB2, Erk1/2, and Akt; details: treatment of tumor xenografts; cited from earlier work
[3] = biological target: T1, Her2-Her3 heterodimers (Homo sapiens, UniProt P21860); experiment: Releasable molecular tag assay of cell lysates for Her2-Her3 heterodimers; assay type: cell-based; details: MCF-7 cells, increasing ligand concentrations, 10 minutes at 37° C., FIG. 4C
T1 construct: endogenous in cells; host or cells: MCF-7
Protocol: Measurements are made using three binding compounds and a cleaving probe as described below.
7.3.1 Sample Preparation: • 1. Serum-starve breast cancer cell line culture overnight before use. • 2. […] Aspirate culture media, transfer onto ice, and add lysis buffer to lyse cells in situ. • 4. Scrape and transfer lysate to microfuge tube. Incubate on ice for 30 min. Microfuge at 14,000 rpm, 4° C., for 10 min. (Centrifugation is optional.) • 5. Collect supernatants as lysates and aliquot for storage at −80° C. until use.
Assay design: As illustrated diagrammatically in FIG. 4A, Her2-Her3 heterodimers (900) are quantified ratiometrically based on the binding of cleaving probe (902) and binding compounds (904), (906), and (908). A photosensitizer indicated by “PS” is attached to cleaving probe (902) via an avidin-biotin linkage, and binding compounds (904), (906), and (908) are labeled with molecular tags Pro14, Pro10, and Pro11, respectively. Binding compound (904) is specific for a phosphorylation site on Her3.
The total assay volume is 40 ul. The lysate volume is adjusted to 30 ul with lysis buffer. […]
7.3.3 Data Analysis: • 1. Normalize relative fluorescence units (RFU) signal of each molecular tag against CE reference standard A315 (a fluorescein-derivatized deoxyadenosine monophosphate that has known peak position relative to molecular tags from the assay upon electrophoretic separation). • 2. […]

[4] = system: Her receptor phosphorylation; experiment: Fixed cell pellet sections, receptor phosphorylation; assay type: cell-based, human; details: 100 nM vs non-stimulated
Protocol: In this example, model fixed tissues made from pelleted cell lines were assayed for the presence of Her receptor dimers. The assay design for heterodimers was essentially the same as that described in FIG. 4A, with exceptions as noted below. That is, four components are employed: (i) a cleaving probe comprising a biotinylated monoclonal antibody conjugated to a cleavage-inducing moiety (in this example, a photosensitizer-derivatized streptavidin, as illustrated in FIG. 3E) and specific for one of the receptors of the dimer, (ii) a monoclonal antibody derivatized with a first molecular tag and specific for the same receptor as the cleaving probe, (iii) a monoclonal antibody derivatized with a second molecular tag and specific for the receptor opposite to that the cleaving probe is specific for, and (iv) a monoclonal antibody derivatized with a third molecular tag and specific for an intracellular phosphorylated tyrosine. The assay design for homodimers was essentially the same as that described in FIG. 1D, with exceptions as noted below.
In each case, model fixed tissues were prepared as follows: cells grown on tissue culture plates were stimulated with either EGF or HRG as described in the prior examples, after which they were washed and removed by scrapping. […]

[5] = system: Her1 phosphorylation; experiment: Releasable molecular tag assay of cell lysates for Her1 phosphorylation; assay type: cell-based, human; details: BT-20 cells, increasing ligand concentration, FIG. 6B
Protocol: Sample preparation was carried out essentially as described in Example 2.
Assay design: A monoclonal antibody specific to the receptor is separately conjugated with either a molecular tag or biotin (that is then linked to a photosensitizer via an avidin bridge), so that the cleaving probe and a binding compound compete to bind to the same epitope in this example. Another binding compound is used that consists of a second antibody recognizing an overlapping epitope on the receptor, so that a ratiometric signal can be generated as a measure of homodimerization. The signal derived from the second antibody also provides a measure of the total amount of receptor in a sample. The total amount of receptor is determined in a separate assay well. Receptor phosphorylation can be quantified together with either homodimerization or total receptor amount.
The assay volume is 40 ul and the general procedure is similar to that of Example 2. Two assay wells, A and B, are set up for each sample to quantify homodimerization and total amount of receptor separately.
• Pro10_anti-Her-1: 0.05-0.1 ug/ml • Pro2_anti-phospho-Tyr: 0.1 ug/ml • Biotin_anti-Her-1: 1-2 ug/ml
7.5.2 Data Analysis: • 1. Normalize RFU signal of each molecular tag against CE reference standard A315. • 2. Subtract RFU of “no lysate” background control from corresponding molecular tag signals. • 3. […]

Molecule | IC90, growth inhibition of human cell lines ([1]; head and neck, breast, and gastric cell lines in vitro) [ng/mL] | outgrowth following cessation of treatment ([1]; up to 18 days following cessation of treatment) | activation of EGFR, erbB2, Erk1/2, and Akt in tumor xenografts [2] | quantity of Her2-Her3 heterodimers [3] | Her receptor phosphorylation ([4]; fixed pellets of 22Rv1 cells, FIG. 15D) | intracellular phosphorylation ([4]; fixed pellets of MDA-MB-468 cells, FIG. 15A) | quantity of Her1 phosphorylation [5]
CS(=O)(=O)CCNCc1ccc(-c2ccc3ncnc(Nc4ccc(OCc5cccc(F)c5)c(Cl)c4)c3c2)o1 [GW572016] | < 1313 | no outgrowth observed | inhibition | – | – | – | –
EGF: epidermal growth factor, peptide that binds to the cell-surface EGFR; used to stimulate cell lines | – | – | – | essentially no change | up-regulation | increases | increases
